Source: US20130102562A1, “INHIBITION OF CATHEPSIN K ACTIVITY AND THE TREATMENT AND PREVENTION OF DISEASE” (SYLVAN PHARMACEUTICALS PTY LTD., priority 2006, published 2013)

B1: RANKL: Receptor Activator NFKB Ligand; stimulates RAW 264.7 cells to generate bone pit resorptive osteoclasts (protein, UniProt O35235 139-316, looked up)
Tumor necrosis factor ligand …: FSGAPAMMEGSWLDVAQRGKPEAQPFAHLTINAASIPSGSHKVTLSSWYHDRGWAKISNMTLSNGKLRVNQDGFYYLYANICFRHHETSGSVPTDYLQLMVYVVKTSIKIPSSHNLMKGGSTKNWSGNSEFHFYSINVGGFFKLRAGEEISIQVSNPSLLDPDQDATYFGAFKVQDID

Experiments:
[1] = system: Cathepsin K gene expression; test: Cathepsin K gene expression by RAW 264.7 cells ± RANKL (RT-PCR); format: cell-based, Murine
Experimental: (§1) (iii) RAW 264.7 Cells • Murine macrophage RAW 264.7 cells respond to Receptor Activator NFKB Ligand (RANKL) stimulation to generate bone pit resorptive osteoclasts. • RAW cells were pre-cultured for several days in High-Glucose Dulbecco's Modified Eagles Medium (HG-DMEM) with 10% Fetal Calf Serum (FCS). • Cells were seeded at 250,000 cells/mL in HG-DMEM/10% FCS with/without […] RANKL and increasing doses of PPS (0-50 μg/mL). • Cells were incubated at 37° C., 5% CO2 for 4 days. • The number of multinucleated cells present in each was counted by two observers at day 2, 3 and 4. The cells were then harvested for RNA extraction and subsequent RT-PCR.

[2] = system: RAW 264.7 cells; test: Multinucleated (OCL) cell count in RAW 264.7 cell cultures ± RANKL; format: cell-based, Murine
Experimental: (iii) RAW 264.7 Cells • Murine macrophage RAW 264.7 cells respond to Receptor Activator NFKB Ligand (RANKL) stimulation to generate bone pit resorptive osteoclasts. • RAW cells were pre-cultured for several days in High-Glucose Dulbecco's Modified Eagles Medium (HG-DMEM) with 10% Fetal Calf Serum […] (0-50 μg/mL). • Cells were incubated at 37° C., 5% CO2 for 4 days. • The number of multinucleated cells present in each was counted by two observers at day 2, 3 and 4. The cells were then harvested for RNA extraction and subsequent RT-PCR.
(iv) H&E Staining • Identical cultures were prepared in petri dishes containing pre-labelled slides and incubated for 4 days, after which slides were carefully rinsed in PBS, immersed in ice-cold acetone and air-dried before freezing. • The slides were then stained with H&E before multinucleated osteoclasts were photographed and counted.

[3] = biological target: T1, Cathepsin K (Homo sapiens, UniProt P43235); test: Cathepsin K bone collagen digests (release of bone collagen, hydroxyproline); format: biochemical; conditions: overall conclusion; Cathepsin K mediated release of bone collagen (FIG. 1)
T1 sequence (P43235 115-329): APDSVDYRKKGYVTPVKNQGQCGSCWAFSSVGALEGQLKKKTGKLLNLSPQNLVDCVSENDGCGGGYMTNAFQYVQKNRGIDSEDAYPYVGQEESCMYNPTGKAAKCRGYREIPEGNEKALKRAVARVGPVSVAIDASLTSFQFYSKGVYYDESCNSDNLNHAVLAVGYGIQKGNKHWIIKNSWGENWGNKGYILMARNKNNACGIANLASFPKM
Experimental: Fresh ovine bone was milled in a stainless steel mortar and pestle in liquid nitrogen. The resultant bone powder was defatted, decalcified and freeze-dried before storage at 4° C.
(ii) Cathepsin K Bone Collagen Digests • 2 mg of insoluble bone collagen powder was digested in 100 mM sodium acetate pH 5.5 containing 2.5 mM dithiothreitol and 2.5 mM EDTA with […] Cathepsin K and increasing doses of PPS. • Digestions were incubated at 37° C. for 24 hours and terminated by the addition of 2 μM E84. Residue and supernatant were hydrolysed separately and the hydroxyproline content measured.

[4] = system: MMP-9 gene expression; test: MMP9 gene expression by RAW 264.7 cells ± RANKL (RT-PCR); format: cell-based, Murine
Experimental: as §1

Molecule	Cathepsin K gene expression ([1]; day 4, increasing concentrations of CaXPS in the absence of RANKL (FIG. 5A))	Cathepsin K expression ([1]; day 4, presence of RANKL, lowest dose of CaXPS, p<0.05 (FIG. 5A))	RANKL-induced multinucleated OCL cell formation ([2]; day 4, 0.5 μg/mL CaXPS vs absence of CaXPS, p<0.05 (FIG. 4B))	RANKL-induced formation of true multinucleated (>4 nuclei/cell) OCL cells ([2]; day 4, 10 μg/mL CaXPS (FIG. 4B))	RANKL-induced formation of true multinucleated (>4 nuclei/cell) OCL cells ([2]; day 4, 50 μg/mL CaXPS (FIG. 4B))	number of cells containing 2-3 nuclei as a percentage total cells ([2]; day 4, 50 μg/mL CaXPS, in the presence of RANKL, p<0.05 (FIG. 4A))	number of cells containing 2-3 nuclei as a percentage total cells ([2]; day 4, − vs + RANKL, at most concentrations of CaXPS (FIG. 4A))	Cathepsin K activity [3]	MMP-9 gene expression ([4]; day 4, increasing concentrations of CaXPS in the absence of RANKL (FIG. 5B))	MMP-9 expression ([4]; day 4, presence of RANKL, 5 μg/mL CaXPS, p<0.05 (FIG. 5B))	expression of Cathepsin K by RAW cells ([1]; RANKL alone vs no RANKL (FIG. 5A))	development of multinucleated cells ([2]; RANKL 20 ng/mL added to RAW cells, by day 3, p<0.05 (FIGS. 2 and 3))	expression of MMP-9 by RAW cells ([4]; RANKL alone vs no RANKL (FIG. 5B))
calcium xylopyranose polysulfate [CaXPS]	no marked effect	significant increase	significantly more	inhibited	inhibited	significantly more 2-3 nucleated cells	still significantly increased	down regulation	no marked effect	decrease			
B1											increased	significant development of multinucleated cells	increased
